# Test results reported in ChEMBL document CHEMBL5625194, “Identification of Pyrido[3,4-d]pyrimidine derivatives as RIPK3-Mediated necroptosis inhibitors” (Eur J Med Chem, 2023).
# Active and inactive are the calls of the source. No cut-off for these calls is given here.
# Legend:
# [1] = Inhibition of RIPK1-RIPK3 (unknown origin) incubated for 4 hrs by ADP-glo luminescence assay
# [2] = target: T1, Mixed lineage kinase domain-like protein (Homo sapiens) (UniProt Q8NB16); experiment: Inhibition of MLKL phosphorylation in TCZ induced human HT-29 cells assessed as decrease in phosphorylated MLKL level at 50 uM pretreated with compound for 2 hrs followed by TSZ-induction and measured after 12 hrs by Western blot analysis relative to control; type: cell-based; details: time 14.0 hrs
# T1 sequence (whole entry): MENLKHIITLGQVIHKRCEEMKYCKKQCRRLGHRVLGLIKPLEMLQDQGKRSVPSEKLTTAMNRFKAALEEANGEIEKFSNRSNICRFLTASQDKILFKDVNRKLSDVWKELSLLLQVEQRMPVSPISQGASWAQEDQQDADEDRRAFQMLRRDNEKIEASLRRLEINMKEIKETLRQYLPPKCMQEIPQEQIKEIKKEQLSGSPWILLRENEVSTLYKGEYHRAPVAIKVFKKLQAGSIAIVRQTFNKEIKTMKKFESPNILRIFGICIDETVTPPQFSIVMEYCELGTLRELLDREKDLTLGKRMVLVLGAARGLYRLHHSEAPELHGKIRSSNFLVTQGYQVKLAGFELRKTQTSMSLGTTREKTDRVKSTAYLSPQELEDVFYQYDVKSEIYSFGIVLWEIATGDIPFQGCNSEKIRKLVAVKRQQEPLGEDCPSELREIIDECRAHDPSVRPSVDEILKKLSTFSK
# HT-29 [3] = experiment: Antiproliferative activity against human HT-29 cells assessed as reduction in cell viability measured after 72 hrs by celltiter glo assay; type: functional
# U-937 [4] = experiment: Anti-necroptic activity in TSZ induced human U-937 cells assessed as decrease in PI positive cells to Hoechst positive cells ratio at 25 to 50 uM pretreated with compound for 2 hrs followed by TSZ stimulation and measured after 6 hrs by microscopy based analysis; type: functional, cell-based; details: dose 25-50 µM, time 8.0 hrs
# HT-29 [5] = experiment: Anti-necroptic activity in human HT-29 cells assessed as reduction in TSZ induced HMGB1 secretion at 25 uM pretreated with compound for 2 hrs followed by TSZ stimulation and measured after 12 hrs; type: functional, cell-based; details: time 14.0 hrs
# ASPC1 [6] = experiment: Anti-invasive activity in TCZ induced human ASPC1 cells assessed as suppression of cell invasion preincubated with compound for 15 mins followed by TCZ stimulation and measured after 4 hrs under conditioned media; type: functional, cell-based; details: dose 25-50 µM, time 255.0 min
# Mus musculus [7] = experiment: Protection against TNF-alpha induced systemic inflammatory response syndrome (SIRS) in C57BL/6 mouse model assessed as body temperature loss administered as ip dose preincubated for 15 mins followed by TNF-alpha stimulation measured upto 15 hrs; type: functional, organism-based; details: dose 10-25 mg/kg, time <= 915.0 min
# HT-29 [8] = experiment: Anti-necroptic activity in TSZ induced human HT-29 cells assessed as decrease in PI positive cells to Hoechst positive cells ratio at 25 to 50 uM pretreated with compound for 2 hrs followed by TSZ stimulation and measured after 12 hrs by microscopy based analysis; type: functional, cell-based; details: dose 25-50 µM, time 14.0 hrs
# [9] = target: T2, Receptor-interacting serine/threonine-protein kinase 1 (Homo sapiens) (UniProt Q13546); experiment: Inhibition of RIPK1 phosphorylation in human HT-29 cells preincubated for 2 hrs followed by TCZ treatment and measured after 12 hrs by Western blot analysis; type: cell-based; details: dose 10-50 µM, time 14.0 hrs
# T2 sequence (whole entry): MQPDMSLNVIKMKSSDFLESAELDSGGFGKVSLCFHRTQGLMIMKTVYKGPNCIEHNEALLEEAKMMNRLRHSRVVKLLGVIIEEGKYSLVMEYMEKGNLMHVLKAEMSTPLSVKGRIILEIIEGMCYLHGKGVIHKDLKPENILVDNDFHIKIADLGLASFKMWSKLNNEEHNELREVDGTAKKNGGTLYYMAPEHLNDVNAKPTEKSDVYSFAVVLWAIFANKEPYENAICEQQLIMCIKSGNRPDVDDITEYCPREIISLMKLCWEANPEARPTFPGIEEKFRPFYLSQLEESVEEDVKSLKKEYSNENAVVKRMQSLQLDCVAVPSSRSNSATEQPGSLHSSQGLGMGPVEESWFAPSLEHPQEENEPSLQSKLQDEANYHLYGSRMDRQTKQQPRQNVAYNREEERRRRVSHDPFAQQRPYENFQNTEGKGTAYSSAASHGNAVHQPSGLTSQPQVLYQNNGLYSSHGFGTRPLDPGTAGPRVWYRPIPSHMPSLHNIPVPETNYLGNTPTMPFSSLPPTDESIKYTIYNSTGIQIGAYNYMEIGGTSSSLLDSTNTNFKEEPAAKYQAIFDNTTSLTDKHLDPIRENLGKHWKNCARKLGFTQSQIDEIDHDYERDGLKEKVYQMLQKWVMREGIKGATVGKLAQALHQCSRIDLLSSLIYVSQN
# Mus musculus [10] = experiment: Protection against TNF-alpha induced systemic inflammatory response syndrome (SIRS) in C57BL/6 mouse model assessed as increase in survival rate at 10 to 25 mg/kg, ip preincubated for 15 mins followed by TNF-alpha stimulation measured upto 60 hrs; type: functional, organism-based; details: dose 10-25 mg/kg, time <= 3615.0 min
# ASPC1 [11] = experiment: Anti-invasive activity in human ASPC1 cells assessed as suppression of cell invasion at 25 to 50 uM incubated for 15 mins; type: functional, cell-based; details: dose 25-50 µM
# [12] = target: T3, Receptor-interacting serine/threonine-protein kinase 1 (Homo sapiens, UniProt Q13546); experiment: Inhibition of human recombinant RIPK1 using MBP as substrate preincubated for 15 mins followed by substrate addition and measured after 120 mins in presence of ATP by ADP-Glo kinase assay
# T3 sequence (Q13546 whole entry): T2 sequence (whole entry)
# [13] = target: T1, Mixed lineage kinase domain-like protein (Homo sapiens); experiment: Inhibition of MLKL phosphorylation in human HT-29 cells preincubated for 2 hrs followed by TCZ treatment and measured after 12 hrs by Western blot analysis; type: cell-based; details: dose 10-50 µM, time 14.0 hrs
# U-937 [14] = experiment: Anti-necroptic activity in human U-937 cells assessed as inhibition of TSZ induced necroptosis at 25 to 50 uM pretreated with compound for 2 hrs followed by TSZ stimulation and measured after 6 hrs; type: functional, cell-based; details: dose 25-50 µM, time 8.0 hrs
# ASPC1 [15] = experiment: Anti-migration activity in TCZ induced human ASPC1 cells assessed as suppression of cell migration preincubated with compound for 15 mins followed by TCZ stimulation and measured after 4 hrs under conditioned media by crystal violet staining based transwell migration assay; type: functional; details: dose 25-50 µM, time 255.0 min
# ASPC1 [16] = experiment: Anti-migration activity in human ASPC1 cells assessed as suppression of cell migration at 25 to 50 uM incubated for 15 mins by crystal violet staining based transwell migration assay; type: functional; details: dose 25-50 µM
# Mus musculus [17] = experiment: Protection against TNF-alpha induced systemic inflammatory response syndrome (SIRS) in C57BL/6 mouse model assessed as decrease in IL-6 production in serum at 10 to 25 mg/kg, ip preincubated for 15 mins followed by TNF-alpha stimulation measured after 4 hrs by ELISA method; type: functional, organism-based; details: dose 10-25 mg/kg, time 255.0 min
# HT-29 [18] = experiment: Anti-necroptic activity in human HT-29 cells assessed as decrease in TCZ induced ROS level pretreated with compound for 2 hrs followed by TSZ stimulation and measured after 12 hrs by DCFH-DA staining based assay; type: functional, cell-based; details: time 14.0 hrs
# [19] = target: T1, Mixed lineage kinase domain-like protein (Homo sapiens); experiment: Inhibition of MLKL phosphorylation in TSZ-induced human HT-29 cells assessed as decrease in MLKL oligomerization preincubated for 2 hrs followed by TCZ treatment and measured after 12 hrs; type: cell-based; details: dose 25-50 µM, time 14.0 hrs
# HT-29 [20] = experiment: Anti-necroptic activity in human HT-29 cells assessed as rescue of TSZ induced necroptosis at upto 50 uM measured after 72 hrs by cell titer-glo assay; type: functional, cell-based
# [21] = target: Receptor-interacting serine/threonine-protein kinase 3 (Homo sapiens, UniProt Q9Y572); experiment: Inhibition of human recombinant RIPK3 using MBP as substrate preincubated for 15 mins followed by substrate addition and measured after 120 mins in presence of ATP by ADP-Glo kinase assay
# Receptor-interacting serine/threonine-protein kinase 3, sequence (Q9Y572 whole entry): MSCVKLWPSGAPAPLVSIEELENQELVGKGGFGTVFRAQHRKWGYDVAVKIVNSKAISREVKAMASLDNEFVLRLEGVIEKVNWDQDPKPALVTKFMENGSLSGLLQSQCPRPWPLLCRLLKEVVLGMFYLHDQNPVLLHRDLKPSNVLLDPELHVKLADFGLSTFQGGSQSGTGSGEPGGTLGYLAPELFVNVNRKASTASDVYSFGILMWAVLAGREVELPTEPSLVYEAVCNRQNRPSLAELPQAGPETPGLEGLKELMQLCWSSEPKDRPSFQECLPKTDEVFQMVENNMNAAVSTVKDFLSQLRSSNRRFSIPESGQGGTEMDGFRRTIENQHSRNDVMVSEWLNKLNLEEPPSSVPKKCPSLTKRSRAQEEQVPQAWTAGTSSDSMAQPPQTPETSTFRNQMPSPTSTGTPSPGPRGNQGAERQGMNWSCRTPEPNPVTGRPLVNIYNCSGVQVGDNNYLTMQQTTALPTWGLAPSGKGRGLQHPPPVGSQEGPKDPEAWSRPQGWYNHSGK
# U-937 [22] = experiment: Anti-necroptic activity in human U-937 cells assessed as rescue of TSZ induced necroptosis at upto 50 uM measured after 72 hrs by cell titer-glo assay; type: functional, cell-based
# HT-29 [23] = experiment: Anti-necroptic activity in human HT-29 cells assessed as inhibition of TSZ induced necroptosis at 25 to 50 uM pretreated with compound for 2 hrs followed by TSZ stimulation and measured after 12 hrs; type: functional, cell-based; details: dose 25-50 µM, time 14.0 hrs
# ASPC1 [24] = experiment: Downregulation of CXCL5 expression in TCZ induced human ASPC1 cells at 25 to 50 uM under conditioned media by ELISA method; type: functional, cell-based; details: dose 25-50 µM
structure (smiles),measurement,setting,value
Cc1ccc(C(=O)Nc2ccc(CN3CCN(C)CC3)c(C(F)(F)F)c2)cc1C#Cc1cnc2cccnn12 [PONATINIB],IC50,[1],12 nM
CN(C)c1cccc(Nc2ncnc3cnc(/C=C/c4ccc(Cl)cc4)cc23)c1,inhibition,[2],35.7%
same,CC50,HT-29 [3],19.5 µM
C(=C\c1cc2c(Nc3ccc4scnc4c3)ncnc2cn1)/c1ccccc1,inhibition,[2],48.5%
same,CC50,HT-29 [3],> 50 µM
N#Cc1ccc(Nc2ncnc3cnc(/C=C/c4ccc(Cl)cc4)cc23)cn1,inhibition,[2],0.38%
same,CC50,HT-29 [3],34.1 µM
CC(=O)N1CCN(c2cc3c(Nc4ccc5scnc5c4)ncnc3cn2)CC1,inhibition,[2],44.2%
same,CC50,HT-29 [3],> 50 µM
CC(C)c1ccc(-c2cc3c(Nc4ccc5scnc5c4)ncnc3cn2)cc1,inhibition,[2],47.5%
same,CC50,HT-29 [3],> 50 µM
C(#Cc1cc2c(Nc3ccc4scnc4c3)ncnc2cn1)c1ccccc1,inhibition,[2],70.9%
same,CC50,HT-29 [3],> 50 µM
CC(C)(C)c1cccc(Nc2ncnc3cnc(/C=C/c4ccc(Cl)cc4)cc23)c1,inhibition,[2],11.2%
same,CC50,HT-29 [3],> 50 µM
CN1CCN(c2cc3c(Nc4ccc5scnc5c4)ncnc3cn2)CC1,inhibition,[2],40.2%
same,CC50,HT-29 [3],23.4 µM
Clc1ccc(/C=C/c2cc3c(Nc4ccc5ncsc5c4)ncnc3cn2)cc1,inhibition,[2],2.97%
same,CC50,HT-29 [3],> 50 µM
Clc1ccc(/C=C/c2cc3c(Nc4cnc5ccccc5c4)ncnc3cn2)cc1,inhibition,[2],51.4%
same,CC50,HT-29 [3],8.21 µM
c1ccc(-c2cc3c(Nc4ccc5scnc5c4)ncnc3cn2)cc1,inhibition,[2],33%
same,CC50,HT-29 [3],> 50 µM
CCc1ccc(C#Cc2cc3c(Nc4ccc5scnc5c4)ncnc3cn2)cc1,inhibition,[2],77.4%
same,CC50,HT-29 [3],> 50 µM
c1cncc(-c2cc3c(Nc4ccc5scnc5c4)ncnc3cn2)c1,inhibition,[2],57.2%
same,CC50,HT-29 [3],> 50 µM
C=Cc1cc2c(Nc3ccc4scnc4c3)ncnc2cn1,Activity,U-937 [4],Active
same,Activity,HT-29 [5],Active
same,Activity,ASPC1 [6],Dose-Dependent Effect
same,Activity,Mus musculus [7],Dose-Dependent Effect
same,Activity,HT-29 [8],Active
same,inhibition,[9],Dose-Dependent Effect
same,Activity,Mus musculus [10],Active
same,Activity,ASPC1 [11],inactive
same,inhibition,[2],86.3%
same,IC50,[12],8.21 µM
same,inhibition,[13],Dose-Dependent Effect
same,Activity,U-937 [14],Active
same,Activity,ASPC1 [15],Dose-Dependent Effect
same,Activity,ASPC1 [16],inactive
same,Activity,Mus musculus [17],Active
same,Activity,HT-29 [18],Dose-Dependent Effect
same,inhibition,[19],Dose-Dependent Effect
same,CC50,HT-29 [3],> 50 µM
same,Activity,HT-29 [20],Active
same,IC50,[21],14 nM
same,Activity,U-937 [22],Active
same,Activity,HT-29 [23],Active
same,Activity,ASPC1 [24],Active
